Data taken from patent US5633229A, “Method of using prophenins-antibiotic peptides” (University of California, priority 1995, dated 1997).
Where no end group is shown, it is not given here.

Experiments:
[1] = test system: C. albicans, strain 820; assay: radial diffusion assay in agarose gels, C. albicans; assay type: cell-based; conditions: for inhibitory activity against C. albicans (FIG. 4c): result in words; for minimal microbicidal concentration: Target C. albicans
Description: (§1) Aliquots (66 μl ) of each fraction were dried by vacuum centrifugation, and resuspended in approximately 6.6 μl of 0.01% acetic acid. Five μl samples of this concentrate were tested for antimicrobial activity against E. coli ML-35, L. monocytogenes, Strain EGD and C. albicans, strain 820 by radial diffusion and gel overlay techniques (Lehrer, R. I. et al. J Immunol Meth (1991) 137:167-173). Active fractions were further examined by acid-urea PAGE and SDS-PAGE. Prophenins emerged from the P10 column in fractions 38-43 (39.6 ml total volume), which contained a total of 18 mg protein BCA analysis.
(§2) The radial diffusion assay in agarose gels as described above was also used to test the activity of the purified prophenins. Samples of 5 μL each were added to 3 mm wells in thin gels composed of 10 mM sodium phosphate, 30 mg/ml trypticase soy broth powder in 1% agarose and containing approximately 4×10^5 CFU/ml of mid-log phase organisms. After allowing 3 hours for the samples to diffuse into the underlayer gel, a nutrient-rich overlay gel was poured and the plates were incubated for 24 hours at 37° C. to allow surviving organisms to form microcolonies. The diameters of the clear zones were measured and expressed in "units" (10 units=1 mm) as described previously.

[2] = test system: E. coli ML-35; assay: radial diffusion assay in agarose gels, E. coli; assay type: cell-based; conditions: for minimal microbicidal concentration: Target E. coli
Description: as §1, §2

[3] = test system: L. monocytogenes, Strain EGD; assay: radial diffusion assay in agarose gels, L. monocytogenes; assay type: cell-based; conditions: Target L. monocytogenes
Description: as §1, §2

[4] = test system: lipid polysaccharide (LPS) of the Gram-negative bacterium E. coli strain 0.55B5; assay: Limulus amebocyte lysate (LAL) test for endotoxin binding; assay type: biochemical; set-up: key to LPS-induced gel formation of E-TOXATE (Table 3): ++: a solid gel (no inhibition); +: increased viscosity without solid gel formation (partial inhibition); 0: gelation was absent (complete inhibition); conditions: for LPS-induced gel formation of E-TOXATE (Table 3): 60 minutes at 37° C.
Description: The prophenins of the invention were tested for their ability to bind the lipid polysaccharide (LPS) of the Gram-negative bacterium E. coli strain 0.55B5. The assay was the Limulus amebocyte lysate (LAL) test for endotoxins conducted in the presence and absence of the test compounds. The test was conducted using the procedure described in Sigma Technical Bulletin No. 210 as revised in Dec. 1992 and published by Sigma Chemical Company, St. Louis, Mo.
The LAL test is based on the ability of LPS to effect gelation in the commercial reagent E-TOXATE™ which is prepared from the lysate of circulating amebocytes of the Horseshoe Crab Limulus polyphemus. As described in the technical bulletin, when exposed to minute quantities of LPS, the lysate increases in opacity as well as viscosity and may gel or clot depending on the concentration of endotoxin. The technical bulletin goes on to speculate that the mechanism appears analogous to the clotting of mammalian blood and involves the steps of activation of a trypsin-like preclotting enzymes by the LPS in the presence of calcium ion, followed by enzymic modifications of a "coagulogen" by proteolysis to produce a clottable protein. These steps are believed tied to the biologically active or "pyrogenic" portion of the molecule. It has been shown previously that detoxified LPS (or endotoxin) gives a negative LAL test.
In the assay, the amounts of prophenin-1 and polymyxin B (78% free polymyxin, Sigma) were preincubated in a final volume of 0.2 ml and the test mixtures contained LPS at a final concentration of 0.05 endotoxin unit/ml and E-TOXATE™ at the same concentration. The test compounds were incubated together with the LPS for 15 minutes before the E-TOXATE™ was added to a final volume (after E-TOXATE™ addition) of 0.2 ml. The tubes were then incubated for 60 minutes at 37° C. and examined for the formation of a gel.

In the case of HNP-1: human defensin (HNP-1), control, the “inhibitory activity against C. albicans (FIG. 4c)” value [1] is reported as “substantially noninhibitory”.
In the case of “HNP-2: column head of Table 2; probably the human defensin control named HNP-1 in the text (CYCRIPACIAGERRYGTCIYQGRLWAFCC; ends and bridges not checked; cysteine pairing not given here; UniProt P59665 66-94, looked up)”, the minimal microbicidal concentration [1] is reported as > 150 µg/mL, the minimal microbicidal concentration [2] is reported as 80.0 µg/mL and the minimal microbicidal concentration [3] is reported as 12.0 µg/mL.
“PG-3: protegrin-3 (PG3), control (RGGGLCYCRRRFCVCVGR; ends and bridges not checked; cysteine pairing not given here; UniProt P32196 131-148, looked up)” was tested, and the minimal microbicidal concentration [1] was 6.9 µg/mL, the “inhibitory activity against C. albicans (FIG. 4c)” value [1] was “successful antifungals” and the minimal microbicidal concentration [2] was 8.6 µg/mL. For the same substance, the “inhibitory activity against E. coli ML-35 (FIG. 4a)” value ([2]; result in words) was “more inhibitory than HNP-1” and the minimal microbicidal concentration [3] was 9.0 µg/mL.
In the case of Polymyxin B, the “concentration giving complete inhibition of gelation” value ([4]; LAL test, LPS 0.05 endotoxin unit/ml) is reported as 5 µg/mL, the “concentration giving complete inhibition of gelation, molar” value ([4]; LAL test, converted from μg/ml) is reported as “≈ 4.2 μM” and the “LPS-induced gel formation of E-TOXATE (Table 3)” value (shortened to “LPS-induced gel formation”) ([4]; peptide 0.16 μg/ml, LPS 0.05 endotoxin unit/ml) is reported as “++”. For the same substance, the “LPS-induced gel formation” value ([4]; peptide 0.31 μg/ml, LPS 0.05 endotoxin unit/ml) was “++”, the “LPS-induced gel formation” value ([4]; peptide 0.63 μg/ml, LPS 0.05 endotoxin unit/ml) was “++” and the “LPS-induced gel formation” value ([4]; peptide 1.25 μg/ml, LPS 0.05 endotoxin unit/ml) was “++”. For the same substance, the “LPS-induced gel formation” value ([4]; peptide 2.5 μg/ml, LPS 0.05 endotoxin unit/ml) was “+”, the “LPS-induced gel formation” value ([4]; peptide 5.0 μg/ml, LPS 0.05 endotoxin unit/ml) was 0 and the “LPS-induced gel formation” value ([4]; peptide 10.0 μg/ml, LPS 0.05 endotoxin unit/ml) was 0.
